Where two headings read alike, the source gives them in different places.
What was measured:
[1] = target: T1, HIV-1 RT (Human immunodeficiency virus type 1 group M subtype B, UniProt P04585); test: HIV-1 RT assay in the presence of artificial template/primer; type: biochemical
T1 construct: HIV-1 RT Assays in the Presence of Artificial Template/Primer
Protocol: HIV-1 RT Assays in the Presence of Artificial Template/Primer
To prepare the template/primers for the RT experiments, 0.15 mM poly(U), poly(A), and poly(I) were mixed with an equal volume of 0.0375 mM oligo(dA), oligo(dT), and oligo(dC), respectively. The final concentrations of the templates in the RT reaction mixture were 0.015 mM. The reaction mixture (50 μl) contained 50 mM Tris.HCl (pH 7.8), 5 mM dithiothreitol, 300 mM glutathione, 500 μM EDTA, 150 mM KCl, 5 mM MgCl2, 1.25 μg of bovine serum albumin, an appropriate concentration of labeled (tritiated) substrate dTTP, dCTP, or dATP (2 μCi/assay), a fixed concentration of the template/primer poly(A).oligo(dT) (0.015 mM), poly(I).oligo(dC) (0.015 mM), and poly(U).oligo(dA) (0.015 mM), 0.06% Triton X-100, 10 μl of inhibitor solution (containing various concentrations of the compounds), and 1 μl of the RT preparation. The reaction mixtures were incubated at 37° C. for 30 min, at which time 100 μl of yeast RNA (1 mg/ml) and 1 ml of Na4P2O7 (0.02 M) in trichloroacetic acid (5% v/v) were added. The solutions were kept on ice for 30 min, after which the acid-insoluble material was washed and analyzed for radioactivity.

[2] = target: HCMV DNA pol (Human cytomegalovirus, UniProt P08546); test: HCMV DNA polymerase activity, calf thymus DNA as template primer; type: biochemical; conditions: [3H]dTTP incorporation, all four dNTPs
Chain of HCMV DNA pol (P08546 whole entry): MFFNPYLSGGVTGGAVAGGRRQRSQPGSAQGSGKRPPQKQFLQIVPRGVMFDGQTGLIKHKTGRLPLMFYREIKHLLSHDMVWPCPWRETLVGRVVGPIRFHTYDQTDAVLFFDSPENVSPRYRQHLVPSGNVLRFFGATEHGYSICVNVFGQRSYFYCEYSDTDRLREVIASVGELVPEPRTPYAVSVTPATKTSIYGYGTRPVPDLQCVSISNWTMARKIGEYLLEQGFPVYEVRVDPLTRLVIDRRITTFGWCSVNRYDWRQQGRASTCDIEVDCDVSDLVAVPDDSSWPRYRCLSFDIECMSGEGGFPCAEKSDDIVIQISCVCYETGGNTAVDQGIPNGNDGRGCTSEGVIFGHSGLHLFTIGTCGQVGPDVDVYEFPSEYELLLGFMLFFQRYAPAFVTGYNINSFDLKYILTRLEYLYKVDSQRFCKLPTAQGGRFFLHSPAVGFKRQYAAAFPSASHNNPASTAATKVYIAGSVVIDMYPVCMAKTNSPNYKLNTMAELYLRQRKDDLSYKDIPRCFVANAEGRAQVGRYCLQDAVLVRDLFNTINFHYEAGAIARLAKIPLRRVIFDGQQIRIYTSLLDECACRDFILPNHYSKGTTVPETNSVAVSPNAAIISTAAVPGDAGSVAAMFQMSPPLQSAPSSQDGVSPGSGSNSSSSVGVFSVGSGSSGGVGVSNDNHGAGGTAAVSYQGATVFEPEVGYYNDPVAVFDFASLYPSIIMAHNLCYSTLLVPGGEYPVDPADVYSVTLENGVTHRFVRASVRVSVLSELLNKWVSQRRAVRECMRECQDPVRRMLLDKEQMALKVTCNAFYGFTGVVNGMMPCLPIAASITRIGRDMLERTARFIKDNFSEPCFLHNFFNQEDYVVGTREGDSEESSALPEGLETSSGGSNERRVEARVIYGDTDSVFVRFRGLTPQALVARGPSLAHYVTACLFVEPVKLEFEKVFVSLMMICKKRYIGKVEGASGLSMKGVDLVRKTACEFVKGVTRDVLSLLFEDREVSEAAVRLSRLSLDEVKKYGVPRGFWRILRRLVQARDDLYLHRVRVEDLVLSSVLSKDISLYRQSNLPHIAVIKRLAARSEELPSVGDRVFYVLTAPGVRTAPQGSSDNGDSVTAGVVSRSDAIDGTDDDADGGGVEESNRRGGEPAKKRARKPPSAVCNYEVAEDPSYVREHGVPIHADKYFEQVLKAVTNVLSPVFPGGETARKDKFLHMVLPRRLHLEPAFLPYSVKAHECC
Protocol: (§1) The HCMV and HSV-1 DNA polymerase activity was measured in the presence of calf thymus DNA as template primer, and all four dNTPs as the nucleotide substrates of which dTTP was tritiated.

[3] = target: HSV-1 DNA pol (Human herpesvirus 1, UniProt P04293); test: HSV-1 DNA polymerase activity, calf thymus DNA as template primer; type: biochemical; conditions: [3H]dTTP incorporation, all four dNTPs
Chain of HSV-1 DNA pol (P04293 whole entry): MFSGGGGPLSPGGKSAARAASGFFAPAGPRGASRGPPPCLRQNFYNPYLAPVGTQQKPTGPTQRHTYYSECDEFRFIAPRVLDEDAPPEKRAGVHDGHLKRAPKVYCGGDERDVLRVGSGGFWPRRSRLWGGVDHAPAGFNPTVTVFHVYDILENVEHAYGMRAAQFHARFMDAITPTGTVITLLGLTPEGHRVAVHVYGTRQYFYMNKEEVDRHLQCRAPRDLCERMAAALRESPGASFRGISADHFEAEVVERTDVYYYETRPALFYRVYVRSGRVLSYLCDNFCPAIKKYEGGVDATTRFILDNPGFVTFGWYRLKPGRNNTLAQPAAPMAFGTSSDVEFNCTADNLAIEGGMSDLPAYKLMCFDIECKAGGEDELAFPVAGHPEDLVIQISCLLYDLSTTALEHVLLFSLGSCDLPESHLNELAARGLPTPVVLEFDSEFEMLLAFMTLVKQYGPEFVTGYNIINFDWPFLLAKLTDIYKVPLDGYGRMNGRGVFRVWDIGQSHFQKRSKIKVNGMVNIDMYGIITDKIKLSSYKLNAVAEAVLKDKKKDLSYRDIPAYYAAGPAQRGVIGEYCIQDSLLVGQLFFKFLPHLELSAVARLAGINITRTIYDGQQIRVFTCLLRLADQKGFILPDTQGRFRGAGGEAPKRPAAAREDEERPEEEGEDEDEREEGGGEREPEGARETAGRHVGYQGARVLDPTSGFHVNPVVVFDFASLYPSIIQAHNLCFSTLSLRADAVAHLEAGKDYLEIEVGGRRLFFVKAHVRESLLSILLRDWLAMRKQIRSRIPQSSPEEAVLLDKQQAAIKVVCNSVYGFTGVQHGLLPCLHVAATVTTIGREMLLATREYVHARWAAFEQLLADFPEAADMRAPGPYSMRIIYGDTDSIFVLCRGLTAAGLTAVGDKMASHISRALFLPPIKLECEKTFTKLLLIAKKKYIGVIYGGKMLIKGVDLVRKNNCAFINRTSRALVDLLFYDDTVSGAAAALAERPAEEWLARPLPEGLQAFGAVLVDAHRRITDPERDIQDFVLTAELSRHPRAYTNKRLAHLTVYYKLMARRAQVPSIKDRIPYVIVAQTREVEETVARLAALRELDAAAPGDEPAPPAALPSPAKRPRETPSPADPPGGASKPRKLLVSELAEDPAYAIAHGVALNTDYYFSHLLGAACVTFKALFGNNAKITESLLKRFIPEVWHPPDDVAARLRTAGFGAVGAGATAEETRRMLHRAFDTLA
Protocol: as §1

[4] = values marked *: in poly rA.dT/dTTP RT assay, read-out: IC50 HIV-1 RT

SMILES | IC50 [1, 4] [µM] | IC50 [1] [µM] | IC50 [2] [µM] | IC50 [3] [µM] | melting point [°C]
O=C(O)C(OCCCCn1cc(F)c(=O)[nH]c1=O)P(=O)(O)O (stereo not drawn) [Compound 13l, 2-(4-(5-fluoro-2,4-dioxo-3,4-dihydropyrimidin-1(2H)-yl)butoxy)-2-phosphonoacetic acid] | 214 | – | – | – | –
Nc1ccn(C/C=C\COC(C(=O)O)P(=O)(O)O)c(=O)n1 (stereo not drawn) [Compound 13o, 2-Cis-(4-(4-amino-2-oxopyrimidin-1(2H)-yl)but-2-enyloxy)-2-phosphonoacetic acid] | 246 | – | – | – | –
Cc1cn(C/C=C\COC(C(=O)O)P(=O)(O)O)c(=O)[nH]c1=O (stereo not drawn) [Compound 13a, cis-2-(4-(2,4-Dioxo-5-methyl-pyrimidin-1-yl)but-2-enyloxy)-2-phosphonoacetic acid] | – | 235 ± 16 | 2.1 ± 0.6 | 20 | –
Cc1cn(CCCCOC(C(=O)O)P(=O)(O)O)c(=O)[nH]c1=O (stereo not drawn) [Compound 13h, 2-(4-(2,4-Dioxo-5-methyl-pyrimidin-1-yl)butyloxy)-2-phosphonoacetic acid] | – | 145 ± 106 | 29 ± 3 | 56 | –
Cc1cn(CCOC(C(=O)O)P(=O)(O)O)c(=O)[nH]c1=O (stereo not drawn) [Compound 8a, 2-(2-(5-Methyl-2,4-dioxo-3,4-dihydropyrimidin-1(2H)-yl)ethoxy)-2-phosphonoacetic acid] | – | 17 | 161 ± 8 | 19 | –
Cc1cn(Cc2ccccc2COC(C(=O)O)P(=O)(O)O)c(=O)[nH]c1=O (stereo not drawn) [Compound 13g, 2-(2-((2,4-Dioxo-5-methyl-pyrimidin-1-yl)methyl)benzyloxy)-2-phosphonoacetic acid] | – | 131 ± 86 | 13 ± 4 | 11 | –
Cc1cn(C[C@H]2C3C=CC(C3)[C@H]2COC(C(=O)O)P(=O)(O)O)c(=O)[nH]c1=O (stereo partly drawn) [Compound 13f] | – | 340 ± 139 | 14 ± 2 | 32 | –
COC(=O)C(OC[C@@H]1CCCC[C@@H]1Cn1cc(C)c(=O)[nH]c1=O)P(=O)(O)O (stereo partly drawn) [Compound 13j] | – | ≥ 500 | 16 ± 3 | 43 | –
O=C(O)C(OC/C=C\Cn1cc(F)c(=O)[nH]c1=O)P(=O)(O)O (stereo not drawn) [Compound 13k, 2-Cis-(4-(5-fluoro-2,4-dioxo-3,4-dihydropyrimidin-1(2H)-yl)but-2-enyloxy)-2-phosphonoacetic acid] | > 500 | – | – | – | –
Cc1cn(CC#CCOC(C(=O)O)P(=O)(O)O)c(=O)[nH]c1=O (stereo not drawn) [Compound 13b, 2-(4-(2,4-Dioxo-5-methyl-pyrimidin-1-yl)but-2-ynyloxy)-2-phosphonoacetic acid] | – | > 500 | > 500 | – | –
Cc1cn(C(C)COC(C(=O)O)P(=O)(O)O)c(=O)[nH]c1=O (stereo not drawn) [Compound 8c, 2-(2-(5-Methyl-2,4-dioxo-3,4-dihydropyrimidin-1(2H)-yl)propoxy)-2-phosphonoacetic acid] | – | 133 ± 16 | > 200 | 16 | –
Nc1ncnc2c1ncn2C/C=C\COC(C(=O)O)P(=O)(O)O (stereo not drawn) [Compound 13m, 2-Cis-(4-(6-amino-9H-purin-9-yl)but-2-enyloxy)-2-phosphonoacetic acid] | 426 | – | – | – | –
Cc1cn(C[C@H]2CCCC[C@H]2COC(C(=O)O)P(=O)(O)O)c(=O)[nH]c1=O (stereo partly drawn) [Compound 13i] | – | ≥ 500 | 4 | 13 | –
Cc1cn(Cc2cn(CCOC(C(=O)O)P(=O)(O)O)nn2)c(=O)[nH]c1=O (stereo not drawn) [JJ-210, 2-(2-(4-((5-methyl-2,4-dioxo-3,4-dihydropyrimidin-1(2H)-yl)methyl)-1H-1,2,3-triazol-1-yl)ethoxy)-2-phosphonoacetic acid] | – | – | – | – | 189 to 191
Cc1cn(C[C@H]2CCC[C@H]2COC(C(=O)O)P(=O)(O)O)c(=O)[nH]c1=O (stereo partly drawn) [Compound 13d] | – | ≥ 500 | 40 ± 25 | 34 | –
Nc1nc(Cl)c2ncn(C/C=C\COC(C(=O)O)P(=O)(O)O)c2n1 (stereo not drawn) [Compound 13n, 2-Cis-(4-(2-amino-6-chloro-9H-purin-9-yl)but-2-enyloxy)-2-phosphonoacetic acid] | ≥ 500 | – | – | – | –
Cc1cn(C[C@H]2CC=CC[C@H]2COC(C(=O)O)P(=O)(O)O)c(=O)[nH]c1=O (stereo partly drawn) [Compound 13e] | – | 425 ± 106 | 3 ± 0.5 | 16 | –
Cc1cn(CC(C)OC(C(=O)O)P(=O)(O)O)c(=O)[nH]c1=O (stereo not drawn) [Compound 8b, 2-((1-(5-Methyl-2,4-dioxo-3,4-dihydropyrimidin-1(2H)-yl)propan-2-yl)oxy)-2-phosphonoacetic acid] | – | 18 | 111 ± 24 | 12 | –
Cc1cn(C[C@@H](O)[C@@H](O)COC(C(=O)O)P(=O)(O)O)c(=O)[nH]c1=O (stereo partly drawn) [JJ-379] | – | – | – | – | 199 to 201
Cc1cn(C[C@H]2C[C@H]2COC(C(=O)O)P(=O)(O)O)c(=O)[nH]c1=O (stereo partly drawn) [Compound 13c] | – | 440 ± 85 | 4.6 ± 0.2 | 35 | –
